# Measured values published in article PMC6792352, “Limited Chemical Structural Diversity Found to Modulate Thyroid Hormone Receptor in the Tox21 Chemical Library” (Environmental Health Perspectives, 2019).
# Structures can show the parent of a compound that is named as a salt. Where two headings read alike, the source gives them in different places.
# Legend:
# [1] = tested on: GH3-TRE-Luc cell line; settings: read-out: AC50 (uM) modified / 1000, viability, 1 nM T3 present, 24 h
# [2] = in vitro; settings: rat, gh3-tre-luc cells, AC50 (uM) modified / 1000
structure (smiles),measurement,setting,value
ClC1=C(Cl)C(Cl)(Cl)C(Cl)=C1Cl [Hexachlorocyclopentadiene],CC50,[1]; Tox21_110001=Tox21_302780,58 µM
same,CC50 at 24 h,[2],> 90 µM
Cc1ccc(/N=C/N(C)/C=N/c2ccc(C)cc2C)c(C)c1 [Amitraz],CC50,[1]; Tox21_110001=Tox21_300930,62.8 µM
same,CC50 at 24 h,[2],59 µM
CC1=C(/C=C/C(C)=C/C=C/C(C)=C/C(=O)O)C(C)(C)CCC1 [all trans-Retinoic acid],CC50,[1]; Tox21_110001=Tox21_300305,77.6 µM
same,CC50 at 24 h,[2],71.8 µM
CCCCCCCCn1sccc1=O [Octhilinone],CC50,[1]; Tox21_110001=Tox21_300566,3.8 µM
same,CC50 at 24 h,[2],5.52 µM
CC(=O)Oc1ccccc1C(=O)Nc1ncc([N+](=O)[O-])s1 [Nitazoxanide],CC50,[1]; Tox21_110001=Tox21_111018,27.7 µM
same,CC50 at 24 h,[2],23.7 µM
CCCCCCCCCCCCc1ccccc1S(=O)(=O)O [Sodium dodecylbenzenesulfonate],CC50,[1]; Tox21_110001=Tox21_300506,77.4 µM
same,CC50 at 24 h,[2],49.5 µM
O=C(CCCCCCC(=O)Nc1ccccc1)NO [Suberoylanilide hydroxamic acid],CC50,[1]; Tox21_110001=Tox21_112605,2.46 µM
same,CC50 at 24 h,[2],2.15 µM
CC[n+]1c(-c2ccccc2)c2cc(N)ccc2c2ccc(N)cc21 [Ethidium bromide],CC50,[1]; Tox21_110001=Tox21_111123,37.9 µM
same,CC50 at 24 h,[2],47.9 µM
O=S(=O)(O)c1cc(S(=O)(=O)O)c2c(N=Nc3ccccc3)c(O)ccc2c1 [C.I. Acid Orange 10],CC50,[1]; Tox21_110001=Tox21_303019,48.6 µM
same,CC50 at 24 h,[2],46.4 µM
"COc1cc(-c2ccc(N)c(OC)c2)ccc1N [3,3'-Dimethoxybenzidine dihydrochloride]",CC50,[1]; Tox21_110001=Tox21_300315,65 µM
same,CC50 at 24 h,[2],> 90 µM
"ClC(Cl)=C(c1ccc(Cl)cc1)c1ccc(Cl)cc1 [p,p'-DDE]",CC50,[1]; Tox21_110001=Tox21_300109,63.5 µM
same,CC50 at 24 h,[2],48.6 µM
CC1(C)C(C(=O)OC(C#N)c2cccc(Oc3ccccc3)c2)C1(C)C (centres unmarked) [Fenpropathrin],CC50,[1]; Tox21_110001=Tox21_300882,80.7 µM
same,CC50 at 24 h,[2],> 90 µM
CCC(CC)Nc1c([N+](=O)[O-])cc(C)c(C)c1[N+](=O)[O-] [Pendimethalin],CC50,[1]; Tox21_110001=Tox21_300867,> 90 µM
same,CC50 at 24 h,[2],76.7 µM
"CCN(CCN)c1cccc(C)c1 [N-Ethyl-N-(3-methylphenyl)ethane-1,2-diamine]",CC50,[1]; Tox21_110001=Tox21_303371,69.9 µM
same,CC50 at 24 h,[2],61.5 µM
CCCCCCCCCCCCCCCC[N+](C)(C)CC [Ethylhexadecyldimethylammonium bromide],CC50,[1]; Tox21_110001=Tox21_112326,6.28 µM
same,CC50 at 24 h,[2],11.9 µM
"Nc1ccc(Cl)cc1N [4-Chloro-1,2-diaminobenzene]",CC50,[1]; Tox21_110001=Tox21_400037,> 90 µM
same,CC50 at 24 h,[2],73 µM
"C1CN(SSN2CCOCC2)CCO1 [4,4'-Dithiodimorpholine]",CC50,[1]; Tox21_110001=Tox21_303110,49.5 µM
same,CC50 at 24 h,[2],69.4 µM
"Clc1ccc(C(c2ccccc2Cl)C(Cl)Cl)cc1 (centres unmarked) [o,p'-DDD]",CC50,[1]; Tox21_110001=Tox21_110103,41.9 µM
same,CC50 at 24 h,[2],56.7 µM
O=[N+]([O-])c1ccc(Nc2ccccc2)cc1 [4-Nitro-N-phenylaniline],CC50,[1]; Tox21_110001=Tox21_303333,76.1 µM
same,CC50 at 24 h,[2],45.4 µM
CC(C)C[C@H](NC(=O)[C@H](Cc1ccccc1)NC(=O)c1cnccn1)B(O)O [Bortezomib],CC50,[1]; Tox21_110001=Tox21_112672,0.00954 µM
same,CC50 at 24 h,[2],0.0167 µM
CO[C@H]1/C=C/O[C@@]2(C)Oc3c(C)c(O)c4c(O)c(c(/C=N/N5CCN(C)CC5)c(O)c4c3C2=O)NC(=O)/C(C)=C\C=C\[C@H](C)[C@H](O)[C@@H](C)[C@@H](O)[C@@H](C)[C@H](OC(C)=O)[C@@H]1C [Rifampicin],CC50,[1]; Tox21_110001=Tox21_111329,24.2 µM
same,CC50,[1]; Tox21_110001=Tox21_300550,32.4 µM
same,CC50 at 24 h,[2],29.8 µM
O=C1c2ccccc2C(=O)N1SC(Cl)(Cl)Cl [Folpet],CC50,[1]; Tox21_110001=Tox21_301077,2.3 µM
same,CC50 at 24 h,[2],4.47 µM
Oc1cccc(-c2c3nc(c(-c4cccc(O)c4)c4ccc([nH]4)c(-c4cccc(O)c4)c4nc(c(-c5cccc(O)c5)c5ccc2[nH]5)CC4)C=C3)c1 [Temoporfin],CC50,[1]; Tox21_110001=Tox21_113297,11.2 µM
same,CC50 at 24 h,[2],13.6 µM
CC1COc2ccccc2N1C(=O)C(Cl)Cl (centres unmarked) [Benoxacor],CC50,[1]; Tox21_110001=Tox21_303359,22.1 µM
same,CC50 at 24 h,[2],11.9 µM
O=C(Nc1ccc([N+](=O)[O-])cc1Cl)c1cc(Cl)ccc1O [Niclosamide],CC50,[1]; Tox21_110001=Tox21_110209,0.618 µM
same,CC50 at 24 h,[2],0.487 µM
CCCCC/C=C\C/C=C\CCCCCCCC(=O)OC [Methyl linoleate],CC50,[1]; Tox21_110001=Tox21_302917,74 µM
same,CC50 at 24 h,[2],> 90 µM
Cc1c(C)c2c(c(C)c1O)CCC(C)(COc1ccc(CC3SC(=O)NC3=O)cc1)O2 (centres unmarked) [Troglitazone],CC50,[1]; Tox21_110001=Tox21_112119,41.3 µM
same,CC50 at 24 h,[2],54.8 µM
Cc1ccc(/C=C2/C(=O)C3(C)CCC2C3(C)C)cc1 (centres unmarked) [Enzacamene],CC50,[1]; Tox21_110001=Tox21_112423,46.5 µM
same,CC50 at 24 h,[2],> 90 µM
CC(COc1ccccc1)N(CCCl)Cc1ccccc1 (centres unmarked) [Phenoxybenzamine hydrochloride],CC50,[1]; Tox21_110001=Tox21_302978,68.5 µM
same,CC50 at 24 h,[2],45 µM
CC(C)N(C(=O)CCl)c1ccccc1 [Propachlor],CC50,[1]; Tox21_110001=Tox21_303036,54.1 µM
same,CC50 at 24 h,[2],48.7 µM
O=c1[nH]c2ccccc2n1C1CCN(CCCC(c2ccc(F)cc2)c2ccc(F)cc2)CC1 [Pimozide],CC50,[1]; Tox21_110001=Tox21_110224,7.02 µM
same,CC50 at 24 h,[2],8.93 µM
Cc1cc(C2(c3cc(C)c(O)cc3C)OS(=O)(=O)c3ccccc32)c(C)cc1O [p-Xylenol blue],CC50,[1]; Tox21_110001=Tox21_303062,47.5 µM
same,CC50 at 24 h,[2],56.6 µM
CC(CCc1ccccc1)NCC(O)c1ccc(O)c(C(N)=O)c1 (centres unmarked) [Labetalol hydrochloride],CC50,[1]; Tox21_110001=Tox21_302725,24.7 µM
same,CC50 at 24 h,[2],14.1 µM
"CCCCC/C=C/C=C/C=O [(E,E)-2,4-Decadienal]",CC50,[1]; Tox21_110001=Tox21_303165,70.3 µM
same,CC50 at 24 h,[2],> 90 µM
"Nc1ccc(O)c(N)c1 [2,4-Diaminophenol dihydrochloride]",CC50,[1]; Tox21_110001=Tox21_303017,45.5 µM
same,CC50 at 24 h,[2],41.5 µM
CCN(CC)CCSC(=O)C(c1ccccc1)c1ccccc1 [Thiphenamil],CC50,[1]; Tox21_110001=Tox21_111676,30.2 µM
same,CC50 at 24 h,[2],41 µM
Nc1c(/N=N/c2ccc(-c3ccc(/N=N/c4cc(S(=O)(=O)O)c5ccccc5c4N)cc3)cc2)cc(S(=O)(=O)O)c2ccccc12 [C.I. Direct Red 28],CC50,[1]; Tox21_110001=Tox21_111605,16.3 µM
same,CC50 at 24 h,[2],27 µM
C=CC(=O)OCCOCCOCCOCCOC(=O)C=C [Tetraethylene glycol diacrylate],CC50,[1]; Tox21_110001=Tox21_202993,17.8 µM
same,CC50 at 24 h,[2],17.7 µM
Oc1c(Cl)cc(Cl)c(Cl)c1Cc1c(O)c(Cl)cc(Cl)c1Cl [Hexachlorophene],CC50,[1]; Tox21_110001=Tox21_111099,14.8 µM
same,CC50,[1]; Tox21_110001=Tox21_302741,22.4 µM
same,CC50 at 24 h,[2],17.1 µM
